Experimental data published in PMC7462985, “Inhibitors of BRAF dimers using an allosteric site” (Nature Communications, 2020).

Key:
[1] = system: A375 cells (BRAF^V600E monomers); assay: p-ERK inhibition by western blot; settings: A375 cells
[2] = system: RAS^MUT/BRAF^WT melanoma or lung cancer cells (SKMEL-30, SKMEL-2, CALU6); assay: ERK signaling inhibition by western blot; settings: RAS^MUT/BRAF^WT cells, 1 h
BRAF^WT = molecular target: T1, BRAF^WT (Homo sapiens, UniProt P15056); assay: SelectScreen Z'-LYTE kinase activity assay; type: biochemical; settings: 100 μM ATP
T1 construct: purchased Invitrogen (SelectScreen service)
T1 sequence (P15056 whole entry): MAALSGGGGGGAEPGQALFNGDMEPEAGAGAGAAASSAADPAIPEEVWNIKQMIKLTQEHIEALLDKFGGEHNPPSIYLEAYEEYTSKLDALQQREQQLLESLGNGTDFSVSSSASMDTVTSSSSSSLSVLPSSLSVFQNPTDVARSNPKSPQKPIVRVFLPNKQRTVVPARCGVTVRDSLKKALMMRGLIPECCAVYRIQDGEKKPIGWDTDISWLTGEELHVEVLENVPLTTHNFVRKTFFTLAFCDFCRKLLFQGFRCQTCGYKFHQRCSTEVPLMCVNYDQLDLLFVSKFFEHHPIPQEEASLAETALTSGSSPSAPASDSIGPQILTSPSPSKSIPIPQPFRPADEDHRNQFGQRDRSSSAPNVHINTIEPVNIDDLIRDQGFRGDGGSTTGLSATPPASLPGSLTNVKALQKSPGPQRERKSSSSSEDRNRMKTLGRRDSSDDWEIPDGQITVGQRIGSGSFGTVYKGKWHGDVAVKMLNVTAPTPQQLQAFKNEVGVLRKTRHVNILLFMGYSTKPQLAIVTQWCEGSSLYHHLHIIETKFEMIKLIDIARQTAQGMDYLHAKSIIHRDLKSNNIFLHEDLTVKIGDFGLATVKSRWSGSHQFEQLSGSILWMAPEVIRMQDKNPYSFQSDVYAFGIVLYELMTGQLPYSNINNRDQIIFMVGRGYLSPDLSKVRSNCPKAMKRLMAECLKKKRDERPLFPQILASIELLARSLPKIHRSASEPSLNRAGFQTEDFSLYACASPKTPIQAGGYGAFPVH
Method: (§1) BRAF kinase assays were performed using the Z’-LYTE™ enzymatic assay (Invitrogen, USA). […] Titrations were performed using a 1:3 dilution. Assays were performed using SelectScreen (Invitrogen).

BRAF^V600E = BRAF^V600E (Homo sapiens, UniProt P15056, V600E); assay: SelectScreen Z'-LYTE kinase activity assay; type: biochemical; design: purchased Invitrogen (SelectScreen service); settings: 100 μM ATP
BRAF^V600E, sequence (P15056 whole entry V600E): as the sequence (P15056 whole entry) above, with V600E counted along it
Method: as §1

SMILES	concentration that robustly inhibits ERK signaling ([1]; 3 hrs, immunoblot) [µM]	effect on p-ERK levels (in words) [2]	IC50 (BRAF^WT) [nM]	inhibitory activity for BRAF^V600E monomers in comparison to PHI1 (in words) ([1]; 1 h)	IC50 (BRAF^V600E) [nM]
CCCS(=O)(=O)Nc1ccc(F)c(C(=O)c2c[nH]c3ncc(-c4ccc(Cl)cc4)cc23)c1F [Vemurafenib]	0.3	enhances p-ERK levels			
CCc1cc(N2CCC(NCc3ccc(NC(=O)c4ccc(C)c(C#Cc5cnc6cccnn56)c4)cc3C(F)(F)F)CC2)ncn1 [PHI2]			598 ± 113	increased	35 ± 2.8
